# Test results published in patent US9861712B2, “Preparation of extremely small and uniform sized, iron oxide-based paramagnetic or pseudo-paramagnetic nanoparticles and MRI T1 contrast agents using the same” (Hanwha Chemical Corporation, priority 2010, dated 2018).
# Test system: rats
# Experiment: In vivo MR imaging (dynamic time-resolved MR angiography, 3d-FLASH) of blood vessels
# Procedure: Dynamic time-resolved MR angiography and 3d-FLASH images of rats were acquired using a wrist coil on a 3 T MRI scanner before and after the injection of 3 nm iron oxide nanoparticles capped by PO-PEG, prepared according to example 13 (dose: 2.5 mg Fe/kg). The pre-contrast images were subtracted from post-contrast images, and the resulting images were reconstructed using maximum intensity projection (MIP) protocol with OsriX (Version 3.8.1; 32 bit; OsiriX foundation, Geneva). Dynamic time-resolved MR angiography was obtained with an interpolated temporal resolution of 1.25 second and the following parameters: flip angle=20, ETL=1, TR=3.1 ms, TE=1.13 ms, field of view FOV=75×140 mm^2, matrix=256×106, slice thickness/gap=2.5 mm/0 mm, and NEX=1. The imaging parameters of 3d-FLASH are as follows: flip angle=25, ETL=1, TR=25 ms, TE=5.1 ms, field of view FOV=110×65 mm^2, matrix=256×169, slice thickness/gap=1.0 mm/0 mm, and NEX=2.
# MR imaging using the 3 nm nanoparticles capped by glucose 6-phosphate was performed according to example 16.
smiles,measurement,setting,value
O=C([O-])CN1CCN(CC(=O)[O-])CCN([C@H](CO)[C@H](O)CO)CCN(CC(=O)[O-])CC1.[Gd+3] (racemic) [Gadovist],contrast effect of in vivo MR image immediately after the injection,immediately after the injection,high contrast effect
same,time in which the bright signal vanished,in vivo MR image after injection,2 min
same,blood half-life,in words,short blood half-life
